In test [1] the target is Interleukin-1 receptor-associated kinase 1 (Homo sapiens, UniProt P51617).
The target in test [2] is T1, Dual specificity mitogen-activated protein kinase kinase 6 (Homo sapiens, UniProt P52564).
T1 sequence (P52564 whole entry): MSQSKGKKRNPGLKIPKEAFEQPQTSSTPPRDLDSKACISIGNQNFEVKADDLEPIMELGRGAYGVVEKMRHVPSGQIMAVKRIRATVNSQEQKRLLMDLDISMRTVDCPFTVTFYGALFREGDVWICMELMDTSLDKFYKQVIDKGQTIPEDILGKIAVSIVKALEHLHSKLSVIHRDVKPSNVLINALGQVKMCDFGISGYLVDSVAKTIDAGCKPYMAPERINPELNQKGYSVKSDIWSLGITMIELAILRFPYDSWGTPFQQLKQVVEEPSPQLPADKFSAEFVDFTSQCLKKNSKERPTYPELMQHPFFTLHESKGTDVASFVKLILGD

Test [3] concerns the target Tyrosine-protein kinase Lyn (Homo sapiens, UniProt P07948).
Test [4] concerns the target Tyrosine-protein kinase SYK (Homo sapiens, UniProt P43405).
Test [5] concerns the target T2, dCTP pyrophosphatase 1 (Homo sapiens, UniProt Q9H773).
T2 sequence (Q9H773 whole entry): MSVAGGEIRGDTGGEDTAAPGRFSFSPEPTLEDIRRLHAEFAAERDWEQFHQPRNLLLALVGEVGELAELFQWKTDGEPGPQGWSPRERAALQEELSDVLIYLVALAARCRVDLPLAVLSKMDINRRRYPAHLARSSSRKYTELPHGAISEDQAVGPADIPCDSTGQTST

For test [6], the target named is T3, Ras-related protein Rab-27A (Homo sapiens, UniProt P51159).
T3 sequence (P51159 whole entry): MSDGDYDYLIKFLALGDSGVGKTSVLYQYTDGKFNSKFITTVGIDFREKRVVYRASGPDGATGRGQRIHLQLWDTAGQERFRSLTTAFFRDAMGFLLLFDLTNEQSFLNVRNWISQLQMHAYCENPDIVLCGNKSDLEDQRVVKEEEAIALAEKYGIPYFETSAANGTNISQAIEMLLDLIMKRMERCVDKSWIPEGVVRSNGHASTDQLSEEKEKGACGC

Test [7] concerns the target Insulin-like growth factor 1 receptor (Homo sapiens, UniProt P08069).
For test [8], the target named is T4, Peroxisomal acyl-coenzyme A oxidase 1 (Homo sapiens, UniProt Q15067).
T4 sequence (Q15067 whole entry): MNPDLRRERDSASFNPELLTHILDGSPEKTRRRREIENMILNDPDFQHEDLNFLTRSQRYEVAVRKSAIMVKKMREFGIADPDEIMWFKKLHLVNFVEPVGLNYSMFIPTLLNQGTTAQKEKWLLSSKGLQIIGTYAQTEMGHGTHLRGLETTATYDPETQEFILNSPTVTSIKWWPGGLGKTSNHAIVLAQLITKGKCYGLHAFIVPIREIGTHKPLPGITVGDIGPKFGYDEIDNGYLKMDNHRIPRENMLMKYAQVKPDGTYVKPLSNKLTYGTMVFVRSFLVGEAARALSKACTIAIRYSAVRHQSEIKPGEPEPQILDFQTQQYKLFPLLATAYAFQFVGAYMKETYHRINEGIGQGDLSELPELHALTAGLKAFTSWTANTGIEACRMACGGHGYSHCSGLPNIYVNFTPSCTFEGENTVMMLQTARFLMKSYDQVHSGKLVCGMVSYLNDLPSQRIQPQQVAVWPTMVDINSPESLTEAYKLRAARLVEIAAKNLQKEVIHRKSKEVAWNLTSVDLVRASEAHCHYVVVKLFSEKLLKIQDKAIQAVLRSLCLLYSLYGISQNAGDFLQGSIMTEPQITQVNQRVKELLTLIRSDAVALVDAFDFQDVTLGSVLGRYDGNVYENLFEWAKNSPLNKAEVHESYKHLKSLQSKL

Test [9] has as its target Serine/threonine-protein kinase B-raf (Homo sapiens, UniProt P15056).
The target of test [10] is Mitogen-activated protein kinase 7 (Homo sapiens, UniProt Q13164).
Chain of Mitogen-activated protein kinase 7 (Q13164 whole entry): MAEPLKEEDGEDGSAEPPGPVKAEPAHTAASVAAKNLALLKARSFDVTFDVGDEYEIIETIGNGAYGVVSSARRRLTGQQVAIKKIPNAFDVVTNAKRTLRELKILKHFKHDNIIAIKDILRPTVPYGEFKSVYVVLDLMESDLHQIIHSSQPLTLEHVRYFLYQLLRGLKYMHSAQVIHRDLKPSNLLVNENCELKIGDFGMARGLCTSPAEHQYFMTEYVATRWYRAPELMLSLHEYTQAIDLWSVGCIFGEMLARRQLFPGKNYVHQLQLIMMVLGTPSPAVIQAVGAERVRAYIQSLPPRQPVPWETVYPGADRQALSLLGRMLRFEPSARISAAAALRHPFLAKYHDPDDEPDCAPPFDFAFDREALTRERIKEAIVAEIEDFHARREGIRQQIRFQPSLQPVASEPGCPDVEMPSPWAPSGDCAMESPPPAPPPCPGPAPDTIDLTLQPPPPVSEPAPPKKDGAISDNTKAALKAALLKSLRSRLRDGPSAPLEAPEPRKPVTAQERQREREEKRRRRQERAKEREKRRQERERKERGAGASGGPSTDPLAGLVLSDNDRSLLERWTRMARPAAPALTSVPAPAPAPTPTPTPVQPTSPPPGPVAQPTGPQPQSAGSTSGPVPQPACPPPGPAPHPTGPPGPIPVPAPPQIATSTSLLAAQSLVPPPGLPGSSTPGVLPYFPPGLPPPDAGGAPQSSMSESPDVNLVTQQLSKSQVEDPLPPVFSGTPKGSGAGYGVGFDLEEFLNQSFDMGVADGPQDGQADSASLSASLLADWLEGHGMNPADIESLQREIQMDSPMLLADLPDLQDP
In test [11] the target is T5, Bone morphogenetic protein receptor type-2 (Homo sapiens, UniProt Q13873).
T5 sequence (Q13873 whole entry): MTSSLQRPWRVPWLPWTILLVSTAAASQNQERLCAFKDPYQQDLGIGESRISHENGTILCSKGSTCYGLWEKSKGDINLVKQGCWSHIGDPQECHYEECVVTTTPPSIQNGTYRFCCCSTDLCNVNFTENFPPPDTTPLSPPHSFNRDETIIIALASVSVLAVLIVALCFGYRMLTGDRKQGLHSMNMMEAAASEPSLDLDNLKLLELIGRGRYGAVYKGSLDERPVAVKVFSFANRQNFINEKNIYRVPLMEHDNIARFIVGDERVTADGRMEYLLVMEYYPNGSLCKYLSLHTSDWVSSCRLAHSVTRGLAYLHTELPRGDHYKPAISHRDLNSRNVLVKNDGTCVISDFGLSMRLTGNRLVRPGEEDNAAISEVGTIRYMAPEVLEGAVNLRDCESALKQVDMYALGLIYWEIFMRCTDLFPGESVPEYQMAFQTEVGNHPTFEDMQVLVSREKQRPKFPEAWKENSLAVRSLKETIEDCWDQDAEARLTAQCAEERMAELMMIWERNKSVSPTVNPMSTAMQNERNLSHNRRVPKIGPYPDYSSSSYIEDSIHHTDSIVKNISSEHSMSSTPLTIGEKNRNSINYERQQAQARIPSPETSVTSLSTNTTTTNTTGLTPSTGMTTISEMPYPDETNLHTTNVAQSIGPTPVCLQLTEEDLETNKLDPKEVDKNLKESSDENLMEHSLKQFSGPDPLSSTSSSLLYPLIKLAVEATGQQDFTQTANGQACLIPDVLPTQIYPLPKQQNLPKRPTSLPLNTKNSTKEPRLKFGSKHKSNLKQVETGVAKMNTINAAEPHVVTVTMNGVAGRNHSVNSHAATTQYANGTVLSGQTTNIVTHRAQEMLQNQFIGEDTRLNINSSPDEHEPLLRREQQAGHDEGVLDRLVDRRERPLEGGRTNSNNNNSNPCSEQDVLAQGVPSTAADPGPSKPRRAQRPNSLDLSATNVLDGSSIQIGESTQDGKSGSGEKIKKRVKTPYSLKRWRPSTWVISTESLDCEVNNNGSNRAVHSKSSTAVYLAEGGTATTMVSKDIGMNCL

Activity calls are given as the source filed them.

As usually defined, the Kd is the constant that tells how readily two partners part at equilibrium.
Note: in the data inactive means no Kd found up to 30 µM.

Chain of Insulin-like growth factor 1 receptor (P08069 31-736 limits assumed): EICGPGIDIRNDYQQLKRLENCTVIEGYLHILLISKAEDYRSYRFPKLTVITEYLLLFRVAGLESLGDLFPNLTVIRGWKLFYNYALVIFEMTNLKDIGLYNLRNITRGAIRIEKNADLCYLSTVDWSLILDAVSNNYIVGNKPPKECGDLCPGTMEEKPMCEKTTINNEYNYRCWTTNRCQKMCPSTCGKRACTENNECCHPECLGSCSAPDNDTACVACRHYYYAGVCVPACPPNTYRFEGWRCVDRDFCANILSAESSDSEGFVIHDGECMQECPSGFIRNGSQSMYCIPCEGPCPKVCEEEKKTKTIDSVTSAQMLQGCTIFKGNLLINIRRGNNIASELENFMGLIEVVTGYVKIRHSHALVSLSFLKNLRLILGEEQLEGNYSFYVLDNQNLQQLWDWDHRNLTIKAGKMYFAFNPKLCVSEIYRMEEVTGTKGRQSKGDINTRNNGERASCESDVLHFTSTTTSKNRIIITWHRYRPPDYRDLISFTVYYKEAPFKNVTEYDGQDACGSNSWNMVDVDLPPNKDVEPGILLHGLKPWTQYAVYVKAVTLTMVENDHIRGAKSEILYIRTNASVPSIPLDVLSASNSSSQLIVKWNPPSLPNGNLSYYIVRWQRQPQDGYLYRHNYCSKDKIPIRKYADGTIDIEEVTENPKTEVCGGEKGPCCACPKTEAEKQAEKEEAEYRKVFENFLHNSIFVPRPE
Chain of Insulin-like growth factor 1 receptor (P08069 741-1367 limits assumed): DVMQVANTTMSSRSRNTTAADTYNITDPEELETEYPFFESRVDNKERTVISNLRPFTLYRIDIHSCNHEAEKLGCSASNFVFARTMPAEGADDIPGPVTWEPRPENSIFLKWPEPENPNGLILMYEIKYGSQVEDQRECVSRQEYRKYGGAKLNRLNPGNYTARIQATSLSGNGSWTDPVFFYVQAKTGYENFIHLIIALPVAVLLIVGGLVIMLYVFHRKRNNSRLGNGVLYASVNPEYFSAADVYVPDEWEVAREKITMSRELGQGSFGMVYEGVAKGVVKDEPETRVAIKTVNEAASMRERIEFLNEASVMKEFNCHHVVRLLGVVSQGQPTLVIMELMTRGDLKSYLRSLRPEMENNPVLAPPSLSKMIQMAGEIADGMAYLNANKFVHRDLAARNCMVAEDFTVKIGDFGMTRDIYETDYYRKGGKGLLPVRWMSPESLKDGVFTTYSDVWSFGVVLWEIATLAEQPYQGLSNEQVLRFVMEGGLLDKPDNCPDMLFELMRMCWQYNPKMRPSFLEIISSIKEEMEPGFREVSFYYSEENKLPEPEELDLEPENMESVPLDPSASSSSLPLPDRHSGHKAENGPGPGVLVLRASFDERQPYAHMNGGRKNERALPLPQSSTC
Chain of Tyrosine-protein kinase Lyn (P07948 whole entry): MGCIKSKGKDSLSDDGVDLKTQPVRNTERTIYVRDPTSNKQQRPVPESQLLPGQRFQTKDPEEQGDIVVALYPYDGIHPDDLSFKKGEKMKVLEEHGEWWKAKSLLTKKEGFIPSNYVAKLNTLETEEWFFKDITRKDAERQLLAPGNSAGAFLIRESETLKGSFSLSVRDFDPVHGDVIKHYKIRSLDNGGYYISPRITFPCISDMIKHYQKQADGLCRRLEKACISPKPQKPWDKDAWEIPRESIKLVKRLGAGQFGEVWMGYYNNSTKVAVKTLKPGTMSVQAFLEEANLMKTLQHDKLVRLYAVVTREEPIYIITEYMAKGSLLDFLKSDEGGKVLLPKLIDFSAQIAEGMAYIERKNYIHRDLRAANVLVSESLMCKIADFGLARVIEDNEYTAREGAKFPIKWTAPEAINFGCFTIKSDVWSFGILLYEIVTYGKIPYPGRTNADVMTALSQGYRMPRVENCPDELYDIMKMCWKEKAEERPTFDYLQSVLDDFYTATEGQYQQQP
Chain of Interleukin-1 receptor-associated kinase 1 (P51617 whole entry): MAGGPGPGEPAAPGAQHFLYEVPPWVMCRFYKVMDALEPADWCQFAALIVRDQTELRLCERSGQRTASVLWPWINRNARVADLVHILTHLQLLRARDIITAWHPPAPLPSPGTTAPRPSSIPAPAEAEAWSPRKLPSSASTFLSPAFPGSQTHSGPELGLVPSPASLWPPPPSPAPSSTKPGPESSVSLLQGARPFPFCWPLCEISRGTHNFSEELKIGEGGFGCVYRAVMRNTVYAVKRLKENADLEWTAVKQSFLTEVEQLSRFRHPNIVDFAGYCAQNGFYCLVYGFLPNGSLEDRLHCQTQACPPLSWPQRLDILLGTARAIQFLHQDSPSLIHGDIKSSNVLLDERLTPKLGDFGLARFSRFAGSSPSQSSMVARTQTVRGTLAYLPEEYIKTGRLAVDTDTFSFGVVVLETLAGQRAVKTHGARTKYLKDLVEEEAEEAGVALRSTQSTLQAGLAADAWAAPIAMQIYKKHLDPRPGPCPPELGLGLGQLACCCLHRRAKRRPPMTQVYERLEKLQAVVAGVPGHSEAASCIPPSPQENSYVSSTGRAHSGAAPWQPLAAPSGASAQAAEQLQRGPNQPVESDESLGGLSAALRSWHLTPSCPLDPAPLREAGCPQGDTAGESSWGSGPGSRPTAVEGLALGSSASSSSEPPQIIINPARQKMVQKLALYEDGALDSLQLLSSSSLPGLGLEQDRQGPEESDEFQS
Chain of Serine/threonine-protein kinase B-raf (P15056 whole entry): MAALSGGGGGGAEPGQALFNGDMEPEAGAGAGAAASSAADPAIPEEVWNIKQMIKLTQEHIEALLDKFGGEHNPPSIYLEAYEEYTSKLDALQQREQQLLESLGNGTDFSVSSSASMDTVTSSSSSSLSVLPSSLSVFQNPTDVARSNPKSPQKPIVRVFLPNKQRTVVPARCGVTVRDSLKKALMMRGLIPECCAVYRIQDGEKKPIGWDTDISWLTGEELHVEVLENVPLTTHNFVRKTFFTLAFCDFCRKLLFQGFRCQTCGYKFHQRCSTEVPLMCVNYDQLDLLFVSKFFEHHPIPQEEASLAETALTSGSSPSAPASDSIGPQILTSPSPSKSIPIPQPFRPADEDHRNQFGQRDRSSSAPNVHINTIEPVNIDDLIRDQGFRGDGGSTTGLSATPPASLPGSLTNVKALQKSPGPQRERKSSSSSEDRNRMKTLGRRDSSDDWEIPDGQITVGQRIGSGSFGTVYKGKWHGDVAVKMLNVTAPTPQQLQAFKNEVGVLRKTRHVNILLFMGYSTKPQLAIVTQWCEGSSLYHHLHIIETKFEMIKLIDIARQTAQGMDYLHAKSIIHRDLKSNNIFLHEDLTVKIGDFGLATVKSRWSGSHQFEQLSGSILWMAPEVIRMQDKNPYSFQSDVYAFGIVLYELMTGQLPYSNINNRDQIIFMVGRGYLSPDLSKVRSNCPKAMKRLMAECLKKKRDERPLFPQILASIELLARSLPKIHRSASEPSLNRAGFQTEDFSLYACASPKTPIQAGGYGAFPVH

On to `FC(F)(F)c1ccc(/C=C/c2nc(COc3ccc(CCCCn4ccnn4)cc3)co2)cc1` [MUBRITINIB], for which the Kd in test [1], in [2], in test [3], in [4], in [5] and in [6] was > 30 µM (inactive) throughout. In addition, the Kd in test [7], in test [8], in test [9], in test [10] and in [11] was > 30 µM (inactive) in each case.

For the molecule `CCOc1cc2ncc(C#N)c(Nc3ccc(F)c(Cl)c3)c2cc1NC(=O)/C=C/CN(C)C` [PELITINIB], the Kd in [1], in [2], in test [3], in test [4], in test [5] and in test [6] was > 30 µM (inactive) throughout. Besides, the Kd in [7], in [8], in test [9], in test [10] and in [11] was > 30 µM (inactive) each time.

`CCCCCCCCCCCCCCCCCCOP(=O)([O-])OC1CC[N+](C)(C)CC1` [PERIFOSINE]: the Kd in test [1], in test [2], in [3], in test [4], in test [5] and in test [6] was > 30 µM (inactive) each time. For the same molecule, the Kd in [7], in [8], in test [9], in test [10] and in [11] was > 30 µM (inactive) each time.

Consider `N#CC1(c2ccc(NC(=O)c3cccnc3NCc3ccncc3)cc2)CCCC1` [RIVOCERANIB], for which the Kd in [1], in test [2], in test [3], in test [4], in [5] and in test [6] was > 30 µM (inactive) each time. The Kd in [7], in [8], in test [9], in test [10] and in test [11] was > 30 µM (inactive) throughout.

Turning to `O=c1[nH]ccc2cc(OC3CCNCC3)ccc12` [SAR-407899 FREE BASE], the Kd in [1], in [2], in test [3], in test [4], in [5] and in [6] was > 30 µM (inactive) each time. The Kd in test [7], in test [8], in [9], in [10] and in test [11] was > 30 µM (inactive) throughout.

For `CN1CCN(CCOc2cc(OC3CCOCC3)c3c(Nc4c(Cl)ccc5c4OCO5)ncnc3c2)CC1` [SARACATINIB], the Kd in test [1] is > 30 µM (inactive); in test [2], > 30 µM (inactive); in test [3], 0.113 µM (active); in test [4] it was > 30 µM (inactive); in [5], > 30 µM (inactive); in test [6], > 30 µM (inactive). Besides, the Kd in [7], in [8], in test [9], in test [10] and in [11] was > 30 µM (inactive) in each case.

Take `Cn1cc(-c2cnn3c(N)c(Br)c([C@@H]4CCCNC4)nc23)cn1` [SCH-900776]: the Kd in test [1], in test [2], in test [3], in [4], in test [5] and in test [6] was > 30 µM (inactive) in each case. The Kd in test [7], in test [8], in test [9], in test [10] and in [11] was > 30 µM (inactive) in each case.

As for `CO[C@H]1C[C@@H]2CC[C@@H](C)[C@@](O)(O2)C(=O)C(=O)N2CCCC[C@H]2C(=O)O[C@H]([C@H](C)C[C@@H]2CC[C@@H](O)[C@H](OC)C2)CC(=O)[C@H](C)/C=C(\C)[C@@H](O)[C@@H](OC)C(=O)[C@H](C)C[C@H](C)/C=C/C=C/C=C/1C` [SIROLIMUS], the Kd in [1], in test [2], in [3], in [4], in [5] and in test [6] was > 30 µM (inactive) each time. Further, the Kd in [7], in test [8], in [9], in [10] and in test [11] was > 30 µM (inactive) throughout.

For the molecule `CO[C@H]1C[C@@H]2CC[C@@H](C)[C@@](O)(O2)C(=O)C(=O)N2CCCC[C@H]2C(=O)O[C@H]([C@H](C)C[C@@H]2CC[C@@H](OC(=O)C(C)(CO)CO)[C@H](OC)C2)CC(=O)[C@H](C)/C=C(\C)[C@@H](O)[C@@H](OC)C(=O)[C@H](C)C[C@H](C)/C=C/C=C/C=C/1C` [TEMSIROLIMUS], the Kd in test [1], in test [2], in test [3], in test [4], in test [5] and in test [6] was > 30 µM (inactive) each time. The Kd in [7], in test [8], in [9], in test [10] and in test [11] was > 30 µM (inactive) each time.

The values are drawn from ChEMBL document CHEMBL3991601, “The target landscape of clinical kinase drugs” (Science, 2017).
